Reference: patent US8410080B1, “2-methylene-vitamin D analogs and their uses” (Wisconsin Alumni Research Foundation, priority 2011, dated 2013)
“Also recorded” adds a separate entry of the source. Like-named read-outs stand apart in the source and are kept apart here.

How the values were obtained:
[1] = Bone calcium mobilization (serum calcium) in vitamin D-deficient rats; type: in vivo, rat; settings: for bone calcium mobilization activity (serum calcium), in words: dosages tested; for bone calcium mobilization activity (serum calcium), in words / mobilization of bone calcium at 780 pmol/day: 0.02% Ca diet; for mobilization of bone calcium at 780 pmol/day: 780 pmol/day for 4 consecutive days; for potency relative to the native hormone in releasing bone calcium stores: low calcium diet (0.02%), four consecutive ip doses
Procedure: (§1) Male, weanling Sprague-Dawley rats were placed on Diet 11 (Suda et al, J. Nutr. 100:1049, 1970) (0.47% Ca)+vitamins AEK for one week followed by Diet 11 (0.02% Ca)+vitamins AEK for 3 weeks. The rats were then switched to the same diet containing 0.47% Ca for one week followed by two weeks on the same diet containing 0.02% Ca. Dose administration began during the last week on 0.02% calcium diet. Four consecutive ip doses were given approximately 24 hours apart. Twenty-four hours after the last dose, blood was collected from the severed neck and the concentration of serum calcium determined by atomic absorption spectrometry as a measure of bone calcium mobilization. The first 10 cm of the intestine was also collected for intestinal calcium transport analysis using the everted gut sac method.

[2] = tested on: 24-hydroxylase (24Ohase) gene promoter; test: In vitro transcription assay, luciferase reporter in ROS 17/2.8 (bone) cells; type: cell-based; settings: for EC50: ROS 17/2.8 cells, 24-hydroxylase promoter-luciferase, sixteen hours after dosing, read-out: EC50, transcriptional activity in bone cells; for potency relative to 1,25(OH)2D3 in increasing transcription of the 24-hydroxylase gene: bone cells, fold more potent than 1,25(OH)2D3
Procedure: Transcription activity was measured in ROS 17/2.8 (bone) cells that were stably transfected with a 24-hydroxylase (24Ohase) gene promoter upstream of a luciferase reporter gene (Arbour et al., 1998). Cells were given a range of doses. Sixteen hours after dosing the cells were harvested and luciferase activities were measured using a luminometer. RLU=relative luciferase units.

[3] = tested on: Human promyelocytic leukemia (HL60) cells; test: HL-60 differentiation (nitro blue tetrazolium reduction); type: cell-based; settings: for EC50: HL60 cells, four days of treatment, read-out: EC50, ability to promote HL60 differentiation; for potency on HL-60 cell differentiation compared to 1,25(OH)2D3, in words: HL-60 cells
Procedure: Serial dilutions were prepared so that a range of drug concentrations could be tested without changing the final concentration of ethanol (≦0.2%) present in the cell cultures.
Human promyelocytic leukemia (HL60) cells were grown in RPMI-1640 medium containing 10% fetal bovine serum. The cells were incubated at 37° C. in the presence of 5% CO2.
HL60 cells were plated at 1.2×10^5 cells/ml. Eighteen hours after plating, cells in duplicate were treated with drug. Four days later, the cells were harvested and a nitro blue tetrazolium reduction assay was performed (Collins et al., 1979; J. Exp. Med. 149:969-974). The percentage of differentiated cells was determined by counting a total of 200 cells and recording the number that contained intracellular black-blue formazan deposits. Verification of differentiation to monocytic cells was determined by measuring phagocytic activity (data not shown).

[4] = molecular target: T1, full-length recombinant rat vitamin D receptor (Rattus norvegicus, UniProt P13053)
T1 sequence (P13053 1-423): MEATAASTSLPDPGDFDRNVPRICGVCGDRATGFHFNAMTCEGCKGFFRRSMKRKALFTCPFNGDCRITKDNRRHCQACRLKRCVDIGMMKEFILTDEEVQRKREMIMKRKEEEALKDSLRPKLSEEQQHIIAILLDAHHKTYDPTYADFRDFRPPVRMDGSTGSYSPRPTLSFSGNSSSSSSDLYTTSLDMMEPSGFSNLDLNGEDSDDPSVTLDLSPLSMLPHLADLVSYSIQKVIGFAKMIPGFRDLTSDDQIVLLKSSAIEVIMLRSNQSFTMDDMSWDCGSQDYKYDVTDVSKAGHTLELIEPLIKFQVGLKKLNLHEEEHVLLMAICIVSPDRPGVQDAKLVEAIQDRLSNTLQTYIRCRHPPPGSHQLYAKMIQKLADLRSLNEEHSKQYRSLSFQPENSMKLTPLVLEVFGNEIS
Procedure: (§2) Full-length recombinant rat receptor was expressed in E. coli BL21 (DE3) Codon Plus RIL cells and purified to homogeneity using two different column chromatography systems. The first system was a nickel affinity resin that utilizes the C-terminal histidine tag on this protein. The protein that was eluted from this resin was further purified using ion exchange chromatography (S-Sepharose Fast Flow). Aliquots of the purified protein were quick frozen in liquid nitrogen and stored at −80° C. until use. For use in binding assays, the protein was diluted in TEDK50 (50 mM Tris, 1.5 mM EDTA, pH7.4, 5 mM DTT, 150 mM KCl) with 0.1% Chaps detergent. The receptor protein and ligand concentration was optimized such that no more than 20% of the added radiolabeled ligand was bound to the receptor.
(§3) Radiolabeled and unlabeled ligands were added to 100 mcl of the diluted protein at a final ethanol concentration of ≦10%, mixed and incubated overnight on ice to reach binding equilibrium. The following day, 100 mcl of hydroxylapatite slurry (50%) was added to each tube and mixed at 10-minute intervals for 30 minutes. The hydroxylapaptite was collected by centrifugation and then washed three times with Tris-EDTA buffer (50 mM Tris, 1.5 mM EDTA, pH 7.4) containing 0.5% Titron X-100. After the final wash, the pellets were transferred to scintillation vials containing 4 ml of Biosafe II scintillation cocktail, mixed and placed in a scintillation counter. Total binding was determined from the tubes containing only radiolabeled ligand.

[5] = Intestinal calcium transport, everted gut sac method, in vitamin D-deficient rats; type: in vivo, rat; settings: compared to 1,25(OH)2D3
Procedure: as §1

[6] = molecular target: T1, full-length recombinant rat vitamin D receptor; test: biochemical
Procedure: as §2, §3

EC50 [2] [nM] | binding affinity to the receptor compared to the standard 1,25-(OH)2D3, in words [4] | Ki [6] [nM] | EC50 ([3]; Homo sapiens, HL-60, 96 h) [nM] | SMILES | bone calcium mobilization activity (serum calcium), in words [1] | EC50 [3] [nM] | mobilization of bone calcium at 780 pmol/day [1] | potency relative to the native hormone in releasing bone calcium stores [1] | potency relative to 1,25(OH)2D3 in increasing transcription of the 24-hydroxylase gene [2] | intestinal calcium transport activity, in words [5] | potency on HL-60 cell differentiation compared to 1,25(OH)2D3, in words [3]
0.03 | about the same affinity | 0.06 | 7 | C=C1/C(=C\C=C2/CCC[C@]3(C)[C@@H]([C@H](C)CCCC(C)(C)O)CC[C@@H]23)C[C@@H](O)C(=C)[C@@H]1O [2EG-R, (20R)-1α,25-dihydroxy-2-methylene-vitamin D3] | more potent than the native hormone | – | significant mobilization of bone calcium | at least 10 times | about 10 times | more potent than 1,25(OH)2D3; also recorded: very significant activity | –
0.005 | about the same affinity | 0.1 | 0.06 | C=C1/C(=C\C=C2/CCC[C@]3(C)[C@@H]([C@@H](C)CCCC(C)(C)O)CC[C@@H]23)C[C@@H](O)C(=C)[C@@H]1O [2EG-S, (20S)-1α,25-dihydroxy-2-methylene-vitamin D3] | more potent than the native hormone | – | significant mobilization of bone calcium | at least 10 times | about 40 times | more potent than 1,25(OH)2D3; also recorded: very significant activity | more potent than 1,25(OH)2D3
– | about the same affinity | 0.1 | 0.3 | C=C1/C(=C/C=C2\CCC[C@]3(C)[C@@H]([C@@H](C)CCCC(C)(C)O)CC[C@@H]23)C[C@@H](O)C(=C)[C@@H]1O [T-2EG-S, (5E)-(20S)-1α,25-dihydroxy-2-methylene-vitamin D3] | more potent than the native hormone | – | significant mobilization of bone calcium | at least 10 times | about 10 times | about the same potency as 1,25(OH)2D3; also recorded: very significant activity | more potent than 1,25(OH)2D3

SMILES | EC50 [2] [nM] | binding affinity to the receptor compared to the standard 1,25-(OH)2D3, in words [4] | Ki [6] [nM] | EC50 ([3]; Homo sapiens, HL-60, 96 h) [nM] | bone calcium mobilization activity (serum calcium), in words [1] | EC50 [3] [nM] | mobilization of bone calcium at 780 pmol/day [1] | potency relative to the native hormone in releasing bone calcium stores [1] | potency relative to 1,25(OH)2D3 in increasing transcription of the 24-hydroxylase gene [2] | intestinal calcium transport activity, in words [5] | potency on HL-60 cell differentiation compared to 1,25(OH)2D3, in words [3]
C=C1/C(=C\C=C2/CCC[C@]3(C)[C@@H]([C@H](C)CCCC(C)(C)O)CC[C@@H]23)C[C@@H](O)C[C@@H]1O [1α,25-dihydroxyvitamin D3, reference compound] | 0.2 | – | – | – | increased serum calcium levels | 3 | – | – | – | – | –
